Reference: US20130115256A1, “METHODS FOR TREATING OR PREVENTING VASCULAR GRAFT FAILURE” (priority 2010, published 2013)

Legend:
[1] = target: T1, MK2 (Homo sapiens, UniProt P49137); assay: MK2 radiometric kinase assay; format: biochemical
T1 construct: purchased Millipore (IC50 Profiler Express / KinaseProfiler service)
From the text: A commercial radiometric assay service was used to test the specificity and potency of MMI-0100 ([…]; SEQ ID NO: 1) by measuring its half maximal inhibitory concentrations (IC50). This quantitative assay measures how much MK2 inhibitor (MMI-0100; […] (SEQ ID NO: 1)) is needed to inhibit 50% of a given biological process or component of a process (i.e., an enzyme, cell, or cell receptor). Specifically, in these assays, a positively charged substrate is phosphorylated with a radiolabeled phosphate group from an ATP if the kinase is not inhibited by an inhibitor peptide. The positively charged substrate then is attracted to a negatively charged filter membrane, quantified with a scintillation counter, and compared to a 100% activity control. ATP concentrations within 15 μM of the apparent Km for ATP were chosen since an ATP concentration near the Km may allow for the kinases to have the same relative amount of phosphorylation activity. […]
For the MK2 radiometric assay, 5-10 mU of MK2 was incubated with 50 mM Na b-glycerophosphate pH 7.5, 0.1 mM EGTA, 30 μM KKLNRTLSVA (SEQ ID NO: 34; a substrate peptide for MK2), 10 mM MgAcetate, and 10 μM of [y-^33P-ATP] in a final reaction volume of 25 μl. […] The washed P30 filtermat was dried and its radioactivity was measured by scintillation counter.
IC50 values for inhibitor peptides were determined using Millipore's IC50 Profiler Express service. […]

[2] = test system: mouse vein graft (intrathoracic inferior vena cava); assay: Mouse vein graft model; format: in vivo
Protocol: 12-week-old C57BL/6 wild type mice (Harlan) were used for all experiments, as previously described (Muto, A. et al., J. Exp. Med., 2011, 208(3): 561-575, incorporated herein by reference in its entirety). […] Prior to implantation, the vein was treated ex vivo with 100 μM of MMI-0100 ([…] (SEQ ID NO: 1)) peptide solution, or control PBS solution, for 20 minutes at room temperature.
To implant the vein graft, a midline incision was made in the abdomen of a recipient mouse and the infrarenal abdominal aorta was exposed. The abdominal aorta was temporarily occluded with atraumatic micro-clamps and a segment corresponding to the length of the vein graft was excised. The vein was sutured into the arterial circulation using 10-0 nylon in continuous fashion.
Vein grafts were followed postoperatively using the Vevo770® High-Resolution Imaging System (VisualSonics, Toronto, Canada), with weekly measurements of graft wall thickness. At 28 days after surgery, mice were sacrificed to allow explantation of the vein graft. Tissue was either frozen with RNA stabilization reagent (Qiagen) or explanted for paraffin embedding after circulatory flushing with ice-cold PBS followed by 4% paraformaldehyde perfusion-fixation. Vein graft wall thickness, lumen diameter, and outer wall diameter (elastic lamina) were measured in elastin-stained sections using computer morphometry (ImageJ).
Vein graft samples were fixed as described above and harvested for histology. Specimens were embedded in paraffin and cut in cross section (5 μm). Hematoxylin & Eosin, Masson trichrome, and van Gieson elastin staining were performed for all samples. Cells were cultured on gelatin-coated cover slips and fixed with methanol.
All sections were treated for antigen retrieval using 10 mmol/L citrate buffer (pH 6.0) prior to boiling or proteinase K (20 μg/ml) treatment, at room temperature, for 10-15 minutes. Immunohistochemical detection was performed using DAB as well as NovaRED® substrate (Vector). Sections were counterstained with Mayer's Hematoxylin.
The efficacy of MMI-0100 ([…]; SEQ ID NO: 1) in treating intimal hyperplasia in vivo was examined using a mouse model of vein bypass graft. […] The IVC was soaked in a 100 μM solution of MMI-0100 ([…]; SEQ ID NO: 1) at room temperature for 20 minutes prior to implantation into a host (C57BL/6J) mouse to bypass the infrarenal aorta. Five treated and six untreated veins were transplanted for a total of 11 transplanted animals. Vein graft wall thickness was determined using a Vevo7700 ultrasound imaging system at each week. […]

[3] = test system: mouse lung endothelial cells (MLEC); assay: MCP-1 production immunoassay; format: cell-based; details: even at high doses
Protocol: Monocyte Chemotractic Protein-1 (MCP-1) production from mouse lung endothelial cells (MLEC) was analyzed using conditioned culture medium by Quantikine® Mouse CCL/JE/MCP-1 Immunoassay (R&D Systems) following the manufacturer's instructions. Briefly, the assay employs a quantitative sandwich enzyme immunoassay technique in which a monoclonal antibody specific for MCP-1 has been pre-coated onto a microplaste. Standards and samples are pipetted into the wells and any MCP-1 present is bound by the immobilized antibody. After washing away any unbound substances, an enzyme-linked polyclonal antibody specific for MCP-1 is added to the wells. Following a wash to remove any unbound antibody-enzyme reagent, a substrate solution is added to the wells and color develops in proportion to the amount of MCP-1 bound in the initial step. The color development is stopped and the intensity of the color is measured at 450 nm, with wavelength correction at 540 nm or 570 nm.

T1 sequence (P49137 whole entry, species assumed): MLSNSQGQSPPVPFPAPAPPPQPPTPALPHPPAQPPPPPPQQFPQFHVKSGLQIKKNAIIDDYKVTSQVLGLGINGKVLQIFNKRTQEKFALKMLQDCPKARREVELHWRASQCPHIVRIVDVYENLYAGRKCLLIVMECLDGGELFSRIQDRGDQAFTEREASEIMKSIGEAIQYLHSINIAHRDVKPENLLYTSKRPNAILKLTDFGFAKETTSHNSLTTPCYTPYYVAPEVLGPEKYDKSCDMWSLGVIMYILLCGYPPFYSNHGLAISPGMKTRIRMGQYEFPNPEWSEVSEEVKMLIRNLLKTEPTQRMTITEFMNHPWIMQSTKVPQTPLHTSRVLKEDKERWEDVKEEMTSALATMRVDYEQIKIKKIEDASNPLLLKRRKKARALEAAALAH

## YARAAARQARAKALARQLGVAA [MMI-0100]
[1]; MMI-0100 100 μM, remaining kinase activity
  Percent Activity, MK2: <5%
[1]; concentration used for specificity profiling (Table 2, 100 μM)
  inhibition of MK2 activity: > 95%
[2]; 100 μM ex vivo 20 minutes, 4 weeks
  reduced wall thickness compared to control grafts, histological staining: 72%
[2]; 100 μM ex vivo 20 minutes, 4 weeks, immunohistochemistry
  F4/80-positive cells infiltrating into vein grafts: fewer
[2]; follow-up study, 100 μM ex vivo 20 minutes, 4 weeks (control grafts 4.7-fold)
  vein graft wall thickness ratio by ultrasound: 2.6 fold
[2]; vein soaked ex vivo in 100 μM for 20 minutes, 4 weeks after graft, ultrasound (control almost five times)
  grafted vessel wall thickness relative to the originally harvested IVC: about 2.5 times
[3]
  MCP-1 production: did not stimulate MCP-1 production
